The results in this text go back to patent publication US10849867B2, “Methods and compositions for treating conditions associated with an abnormal inflammatory response” (First Wave Bio, Inc., priority 2015, dated 2020).

Where only a bound is given, the exact number is not on record here.

The test system of test [1] is human LPMCs T cells. The test is described as follows: Pro-inflammatory cytokine producing LPMC T cells, intracellular staining flow cytometry (Example 10). The test is classed as cell-based. The settings on record: 5 μM, 24 h, relative to vehicle only negative control. From the text: Model: Lamina propria mononuclear cells (LPMC) in the human intestine are comprised in part by T cells which mediate pathological processes including inflammatory bowel disease. LPMCs can be isolated from human intestine tissue biopsies. After isolation […] cells remain viable ex vivo under appropriate culture conditions for periods of time that allow ex vivo experiments. These cells can be used to investigate if test agents affect their production of pro-inflammatory cytokines including interferon-gamma (IFN), tumor necrosis factor-alpha (TNF) and interleukin 17A (IL-17A), to determine if a test agent affects the pro-inflammatory cytokines that mediate inflammatory bowel disease, including UC. Cell Isolation and Culture: Cells were obtained from colon biopsy specimens of a human from areas with moderate to severe UC. For the isolation of lamina propria mononuclear […] specimens were initially washed in Hank's balanced salt solution (HBSS) then cut into 0.5-cm pieces, and incubated with stirring in pre-warmed HBSS containing 1 mM DTT at 37° C. for 15 minutes. The supernatant was removed and the sample washed with stirring with HBSS for 5 minutes twice. Samples were incubated with stirring in pre-warmed HBSS containing 5 mM EDTA for 30 minutes. The supernatant was removed and the sample washed with stirring with HBSS for 5 minutes three times. The tissue was then digested further in RPMI 1640 containing 2 mg/ml Liberase and 0.01 ug/ml DNase I for 1 hours at 37° C. with stirring. After digestion, the mononuclear cells in suspension were collected and centrifuged at 400 g for 10 minutes. After two washings in HBS, the pellet was resuspended in a 40% Percoll solution and layered on the top of a Percoll solution (100%, 60%, 40%, and 30% Percoll in HBSS). The tube was centrifuged at 400 g for 25 minutes, and LPMCs at the 60%-40% Percoll layer interface were collected. The isolated cells were counted and checked for viability using 0.1% trypan blue (viability ranged from 86% to 94%). […]

Test [2] has as its system human LPMCs T cells. The experiment in a line: ΔΨm in T cells isolated from human intestine lamina propria (LPMC), TMRM with oligomycin (Example 2). In kind it is cell-based. The text has this:
Objective. […] Model. Lamina propria mononuclear cells (LPMC) in the human intestine are comprised in part by T cells, which mediate physiological and pathological processes including inflammatory bowel disease. LPMCs can be isolated from human tissue biopsies. After isolation […] cells remain viable ex vivo under appropriate culture conditions for periods of time that allow ex vivo experiments. These cells can be used to investigate mechanisms that regulate their mitochondrial function and survival. They contain respiring mitochondria and as such their response to mitochondrial uncouplers such as niclosamide may be assessed. This cellular model is used in conjunction with oligomycin that blocks oxidative phosphorylation and TMRM to monitor ΔΨm as described in Example 1. Cell isolation and culture. Cells are obtained from biopsy specimens of the small or large intestine or rectum of humans from areas of normal gastrointestinal tissue or with moderate to severe Crohn's disease (CD), ulcerative colitis (UC), or celiac disease. For the isolation of lamina propria mononuclear […] specimens are initially washed in Hank's balanced salt solution (HBSS) then are cut into 0.5-cm pieces, and are incubated with stirring in pre-warmed HBSS containing 1 mM DTT at 37° C. for 15 minutes. […] The isolated cells are counted and checked for viability using 0.1% trypan blue (viability ranges from 86% to 94%). […] In addition, anti-CD3 monoclonal antibody conjugated to FITC (excitation at 494 nm with emission detected at 521 nm) is additionally added during incubation with TMRM at 37° C. for 30 minutes. […] LPMC T cells are first defined by their fluorescence emission at 521 nm resulting from labeling with FITC-anti-CD3 antibody. The n fluorescence intensity of TMRM detected at 590 nm in the T cell population is measured. Median fluorescence intensity of the TMRM signal are computed. Ratios of the median fluorescence intensity of each treated sample to the control sample mean are then calculated as a measure of relative decrease in ΔΨm. […]

For the molecule `O=C(Nc1ccc([N+](=O)[O-])cc1Cl)c1cc(Cl)ccc1O` [Niclosamide, 5-chloro-N-(2-chloro-4-nitrophenyl)-2-hydroxybenzamide], in test [1], the “human LPMCs T cells that produce IFN” value is recorded as “decrease”, the “human LPMCs T cells that produce IL-17A” value is listed as “decrease” and the “human LPMCs T cells that produce TNF” value is “decrease”. Besides, the “change in ΔΨm in human LPMCs T cells” value in test [2] (TMRM, oligomycin, relative to negative controls) was “dose-related decrease”. Also, the “concentrations of niclosamide that decrease ΔΨm (p<0.05)” value in test [2] (human LPMCs T cells, relative to negative controls) was at least 5 µM. For the same molecule, the “mitochondrial uncoupling in lamina propria T cell” value in test [2] (niclosamide 5 μM) is recorded as “more than 50%”.
